# Results taken from patent US11747335B2, “Compositions and methods for assaying platelet reactivity and treatment selection” (University of Vermont And State Agriculture College, priority 2012, dated 2023).
# Entries after “also recorded” stand apart in the source; their conditions may differ. Read-outs that look alike come from different tables or passages of the source.
# How the values were obtained:
# [1] = test system: FcγRIIa; assay: Phosphorylation of FcγRIIa during platelet activation (immunoprecipitation, Western blot with anti-phosphotyrosine); format: cell-based, human
# Protocol: Whole platelet lysates were prepared by the addition of an equal volume of 2× lysis buffer (2% Nonidet P-40 1, 300 mM NaCl, 50 mM Tris, 2 mM Na3VO4, halt protease and phosphatase inhibitor cocktail [Pierce Biochemicals], ph 7.3) in an ice bath for 30 min. Lysates to be used for immunoprecipitation were pre-cleared of antibodies by the addition of protein G Dynabeads (Invitrogen, Carlsbad, Calif.).
# Immunoprecipitation was performed overnight at 4° C. with the use of goat anti-CD32A/C (Santa Cruz Biotechnology, Santa Cruz, Calif.) or a mouse anti-phosphotyrosine conjugated with magnetic beads (4G10, Millipore, Billerica, Mass.). When anti-CD32A/C was used, antigen-antibody complexes were isolated with the use of protein G-coated magnetic beads (Dynabeads, Invitrogen, Carlsbad, Calif.) for 3 hours. Beads with antigen-antibody complexes were washed once with 0.5× lysis buffer and twice with phosphate buffered saline. Proteins were separated from beads in sample buffer before electrophoresis and wet transfer to Immobilon FL membranes (Millipore, Billerica, Mass.). […] Bands were detected with the use of use of a Li-Cor Odyssey Infrared Imaging system (Li-Cor Biosciences, Lincoln, Nebr.) or chemiluminescence (Amersham/General Electric Healthcare, Piscataway, N.J.).
# [2] = test system: platelets; assay: cells; format: cell-based, human; conditions: for fold induction at 0.5 µg/mL: Homo sapiens, Platelet
# Description: Volumes used minimize aggregation of platelets during activation. Activation of platelets was identified by anti-CD62-phycoerythrin (PE, identifies P-selectin) and fluorescein isothiocyanate (FITC)-conjugated PAC-1 (binds to activated GP IIb-IIIa) as described (Serrano F A, et al., Thromb J 2007; 5:7; Schneider D J, et al., Circulation 96:2877-83, 1997; Kabbani S S, et al., Circulation 2001; 104:181-6; Aggarwal A, et al., Am J Kidney Dis 2002; 40:315-22; and Schneider D J, et al., Diabetes Care, 32:944-9, 2009). Platelet expression of FcγRIIa was quantified with the use of anti-CD32-PE. For both assays (activation and quantification of expression of FcγRIIa) PE-Cy5-anti-CD42b was used as an activation independent marker of platelets. […] Fluorochrome labeled antibodies were from Becton Dickinson (San Jose, Calif.). […] Louis, Mo.), and ADP from BioData (Horsham, Pa.). […] J. et al., J Exp Med 1986; 163:826-836). The SRC kinase antagonist PP2 (EMD Biosciences) was dissolved in dimethylsulfoxide (DMSO, Sigma). Tirofiban was obtained from Merck Research Laboratories (Whitehouse Station, N.J.). The reaction mixture was incubated for 15 minutes at room temperature without stirring before platelets were fixed and erythrocytes lysed by addition of Optilyse-C solution (Beckman Coulter). Flow cytometric analysis was performed with the use of a Beckman Coulter FC500 (Miami, Fla.). Platelets were identified on the basis of size (forward and side scatter) and the binding of an activation independent ligand (anti-CD42b). As described, control samples to define a threshold for activation-dependent binding used non-immune IgG (Serrano F A, et al., Thromb J 2007; 5:7; Schneider D J, et al., Circulation 96:2877-83, 1997; Kabbani S S, et al., Circulation 2001; 104:181-6; Aggarwal A, et al., Am J Kidney Dis 2002; 40:315-22; and Schneider D J, et al., Diabetes Care, 32:944-9, 2009). Activation of platelets is reported as the percentage of platelets that bound an activation dependent ligand, a result that we have shown correlates directly with mean fluorescence intensity (Schneider D J, et al., Thromb Haemost 2001; 85:309-13).
# [3] = test system: platelets; assay: Platelet activation in whole blood by flow cytometry, binding of PAC-1 (activated GP IIb-IIIa); format: cell-based, human
# Description: Volumes used minimize aggregation of platelets during activation. Activation of platelets was identified by anti-CD62-phycoerythrin (PE, identifies P-selectin) and fluorescein isothiocyanate (FITC)-conjugated PAC-1 (binds to activated GP IIb-IIIa) as described (Serrano F A, et al., Thromb J 2007; 5:7; Schneider D J, et al., Circulation 96:2877-83, 1997; Kabbani S S, et al., Circulation 2001; 104:181-6; Aggarwal A, et al., Am J Kidney Dis 2002; 40:315-22; and Schneider D J, et al., Diabetes Care, 32:944-9, 2009). Platelet expression of FcγRIIa was quantified with the use of anti-CD32-PE. For both assays (activation and quantification of expression of FcγRIIa) PE-Cy5-anti-CD42b was used as an activation independent marker of platelets. […] Fluorochrome labeled antibodies were from Becton Dickinson (San Jose, Calif.). […] Louis, Mo.), and ADP from BioData (Horsham, Pa.). […] J. et al., J Exp Med 1986; 163:826-836). The SRC kinase antagonist PP2 (EMD Biosciences) was dissolved in dimethylsulfoxide (DMSO, Sigma). Tirofiban was obtained from Merck Research Laboratories (Whitehouse Station, N.J.). […] Activation of platelets is reported as the percentage of platelets that bound an activation dependent ligand, a result that we have shown correlates directly with mean fluorescence intensity (Schneider D J, et al., Thromb Haemost 2001; 85:309-13).
# [4] = test system: human stem cell derived Megakaryocytes; assay: Expression of FcγRIIa by human stem cell derived megakaryocytes; format: cell-based; conditions: IFNγ treatment; FIG. 11
# [5] = test system: Megakaryocyte cell line; assay: Expression of FcγRIIa by a megakaryocyte cell line; format: cell-based; conditions: IFNγ treatment; FIG. 10
compound,measurement,setting,value
"Nc1ncnc2c1ncn2[C@@H]1O[C@H](COP(=O)(O)OP(=O)(O)O)[C@@H](O)[C@H]1O [ADP, adenosine diphosphate]",time after exposure at which phosphorylation of FcγRIIa was greatest,"[1]; platelets from healthy subjects, thrombin 50 nM, convulxin 10 ng/ml, ADP 25 μM, PAF 100 nM",3 to 5 min
CC(C)(C)n1nc(-c2ccc(Cl)cc2)c2c(N)ncnc21 [PP2],"effect of PP2 on agonist-induced platelet activation, P-selectin expression","[2]; PP2 20 μM vs vehicle DMSO, whole blood, healthy subjects n=7, FIG. 6B",inhibited activation induced by each agonist
same,effect of PP2 on phosphorylation of FcγRIIa during platelet activation,[1]; PP2 20 μM,prevented phosphorylation
same,"effect of PP2 on agonist-induced platelet activation, PAC-1 binding","[3]; PP2 20 μM vs vehicle DMSO, whole blood, healthy subjects n=7, FIG. 6A",inhibited activation induced by each agonist
CCCCS(=O)(=O)N[C@@H](Cc1ccc(OCCCCC2CCNCC2)cc1)C(=O)O [tirofiban],fold induction at 0.5 µg/mL,[2]; read-out: fold induction of ADP induced platelet activation by added fibrinogen after pretreatment with tirofiban,1.2 ± 0.1
same,fold induction at 0.5 µg/mL,[2]; read-out: fold induction of ADP-induced platelet activation by added Factor XIII after pretreatment with tirofiban,0.8 ± 0.2
same,effect of tirofiban on platelet activation induced by goat anti-FcγRIIa,"[2]; tirofiban 0.5 μg/ml, activator goat anti-FcγRIIa",nor did it alter activation
same,effect of tirofiban on agonist-induced P-selectin expression,"[2]; tirofiban 0.5 μg/ml, n=3 subjects, FIG. 5D",did not attenuate
same,effect of tirofiban on binding of PAC-1 to platelets,[3]; tirofiban 0.5 μg/ml,blocked completely; also recorded: abolished binding of PAC-1
IFNγ: cytokine that increases FcγRIIa expression by megakaryocytes,effect on expression of FcγRIIa by human stem cell derived Megakaryocytes,[4],increases
same,effect on expression of FcγRIIa by a Megakaryocyte cell line,[5],increases
